In ChEMBL document CHEMBL5050844 (2019):

Columns and labels:
[1] = Induction of anti-CD3/CD28 antibodies-stimulated human T cell activation at 0.3 uM assessed fold increase in CD25 expression measured by ELISA assay; assay type: functional, T cell line
[2] = Induction of anti-CD3 antibodies-stimulated human CD8+ T cell activation in immunocompetent mouse assessed fold increase in CD25 expression at 90 mg/kg, po administered twice a day; assay type: functional; note: reference of the scale not given here
[3] = Induction of anti-CD3/CD28 antibodies-stimulated human T cell activation at 1 uM assessed fold increase in IL-2 secretion measured by ELISA assay; assay type: functional, T cell line
[4] = Induction of anti-CD3 antibodies-stimulated human CD8+ T cell activation in immunocompetent mouse assessed fold increase in CD25 expression at 45 mg/kg, po administered twice a day; assay type: functional; note: reference of the scale not given here
[5] = Induction of anti-CD3/CD28 antibodies-stimulated human T cell activation at 0.3 uM assessed fold increase in IL-2 secretion measured by ELISA assay; assay type: functional, T cell line
[6] = Induction of anti-CD3 antibodies-stimulated human CD4+ T cell activation in immunocompetent mouse assessed fold increase in CD25 expression at 90 mg/kg, ip administered twice a day; assay type: functional; note: reference of the scale not given here
[7] = Induction of anti-CD3 antibodies-stimulated human T cell activation at 1 uM assessed fold increase in IL-2 secretion measured by ELISA assay; assay type: functional, T cell line; note: reference of the scale not given here
[8] = Induction of anti-CD3 antibodies-stimulated human T cell activation at 1 uM assessed fold increase in CD25 expression measured by ELISA assay; assay type: functional, T cell line; note: reference of the scale not given here
[9] = Induction of anti-CD3 antibodies-stimulated human CD4+ T cell activation in immunocompetent mouse assessed fold increase in CD25 expression at 135 mg/kg, po administered twice a day; assay type: functional; note: reference of the scale not given here
[10] = Induction of anti-CD3/CD28 antibodies-stimulated human T cell activation at 1 uM assessed fold increase in CD25 expression measured by ELISA assay; assay type: functional, T cell line
[11] = target: T1, E3 ubiquitin-protein ligase CBL-B (Homo sapiens, UniProt Q13191); experiment: Inhibition of N-terminal Avi-tagged human CBL-B (36 to 427 residues) incubated with 60 nM Src kinase for 1.5 hrs followed by incubation with fluorescently labeled UbcH5B-Ub for 1 hr and measured by TR-FRET assay; assay type: single protein
T1 sequence (Q13191 whole entry, the tested form may be a part): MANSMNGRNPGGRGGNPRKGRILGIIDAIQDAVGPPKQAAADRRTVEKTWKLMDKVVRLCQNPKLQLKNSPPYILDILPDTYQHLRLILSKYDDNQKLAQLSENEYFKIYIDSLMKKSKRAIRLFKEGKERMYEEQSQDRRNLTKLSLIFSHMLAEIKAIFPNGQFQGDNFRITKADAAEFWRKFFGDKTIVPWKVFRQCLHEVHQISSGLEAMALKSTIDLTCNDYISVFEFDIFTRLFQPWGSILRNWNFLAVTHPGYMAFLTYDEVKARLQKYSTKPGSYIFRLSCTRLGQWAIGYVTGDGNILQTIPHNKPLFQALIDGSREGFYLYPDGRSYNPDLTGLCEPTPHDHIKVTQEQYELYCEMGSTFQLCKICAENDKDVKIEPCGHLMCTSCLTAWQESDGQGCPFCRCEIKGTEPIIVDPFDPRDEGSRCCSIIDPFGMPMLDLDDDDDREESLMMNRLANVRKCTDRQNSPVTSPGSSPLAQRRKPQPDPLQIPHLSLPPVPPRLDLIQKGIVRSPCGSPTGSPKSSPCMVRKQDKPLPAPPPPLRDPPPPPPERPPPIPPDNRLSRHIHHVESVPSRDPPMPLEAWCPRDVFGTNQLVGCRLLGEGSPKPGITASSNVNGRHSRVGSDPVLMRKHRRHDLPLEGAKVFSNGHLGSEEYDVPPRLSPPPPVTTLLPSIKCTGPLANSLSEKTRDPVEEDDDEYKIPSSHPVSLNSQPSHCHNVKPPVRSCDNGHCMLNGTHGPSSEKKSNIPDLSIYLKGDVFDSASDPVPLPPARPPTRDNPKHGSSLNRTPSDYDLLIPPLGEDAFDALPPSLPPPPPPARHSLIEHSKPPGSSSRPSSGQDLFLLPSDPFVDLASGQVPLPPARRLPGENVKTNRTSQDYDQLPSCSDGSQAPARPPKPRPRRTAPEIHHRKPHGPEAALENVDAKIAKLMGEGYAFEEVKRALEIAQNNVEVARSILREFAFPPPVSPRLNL

[12] = Induction of anti-CD3 antibodies-stimulated human T cell activation at 8 uM assessed fold increase in CD25 expression measured by ELISA assay; assay type: functional, T cell line; note: reference of the scale not given here
[13] = Induction of anti-CD3 antibodies-stimulated human CD4+ T cell activation in immunocompetent mouse assessed fold increase in CD25 expression at 180 mg/kg, po administered twice a day; assay type: functional; note: reference of the scale not given here
[14] = Induction of anti-CD3 antibodies-stimulated human CD4+ T cell activation in immunocompetent mouse assessed fold increase in CD25 expression at 90 mg/kg, po administered twice a day; assay type: functional; note: reference of the scale not given here
[15] = Induction of anti-CD3/CD28 antibodies-stimulated human T cell activation at 4 uM assessed fold increase in IL-2 secretion measured by ELISA assay; assay type: functional, T cell line
[16] = Induction of anti-CD3/CD28 antibodies-stimulated human T cell activation at 4 uM assessed fold increase in CD25 expression measured by ELISA assay; assay type: functional, T cell line
[17] = Induction of anti-CD3 antibodies-stimulated human CD8+ T cell activation in immunocompetent mouse assessed fold increase in CD25 expression at 135 mg/kg, po administered twice a day; assay type: functional; note: reference of the scale not given here
[18] = Induction of anti-CD3 antibodies-stimulated human T cell activation at 8 uM assessed fold increase in IL-2 secretion measured by ELISA assay; assay type: functional, T cell line; note: reference of the scale not given here
[19] = Induction of anti-CD3 antibodies-stimulated human CD8+ T cell activation in immunocompetent mouse assessed fold increase in CD25 expression at 180 mg/kg, po administered twice a day; assay type: functional; note: reference of the scale not given here
[20] = Induction of anti-CD3 antibodies-stimulated human CD8+ T cell activation in immunocompetent mouse assessed fold increase in CD25 expression at 90 mg/kg, ip administered thrice a day; assay type: functional; note: reference of the scale not given here
[21] = Induction of activation of human CD56+ CD3- NK cells co-cultured with human K562 cells in 5:1 ratio and assessed as increase in IFN-gamma secretion at 10 uM measured by ELISA assay; assay type: functional, Natural killer cell
[22] = Induction of activation of human CD56+ CD3- NK cells co-cultured with human K562 cells in 5:1 ratio and assessed as increase in MIP1beta secretion at 10 uM measured by ELISA assay; assay type: functional, Natural killer cell
[23] = Induction of activation of human CD56+ CD3- NK cells co-cultured with human K562 cells in 5:1 ratio and assessed as increase in TNF-alpha secretion at 1 uM measured by ELISA assay; assay type: functional, Natural killer cell
[24] = Induction of activation of human CD56+ CD3- NK cells co-cultured with human K562 cells in 1:1 ratio and assessed as increase in MIP1beta secretion at 1 uM measured by ELISA assay; assay type: functional, Natural killer cell
[25] = Induction of activation of human CD56+ CD3- NK cells co-cultured with human K562 cells in 5:1 ratio and assessed as increase in TNF-alpha secretion at 10 uM measured by ELISA assay; assay type: functional, Natural killer cell
[26] = Induction of activation of human CD56+ CD3- NK cells co-cultured with human K562 cells in 1:1 ratio and assessed as increase in TNF-alpha secretion at 10 uM measured by ELISA assay; assay type: functional, Natural killer cell
[27] = Induction of activation of human CD56+ CD3- NK cells co-cultured with human K562 cells in 1:1 ratio and assessed as increase in MIP1beta secretion at 10 uM measured by ELISA assay; assay type: functional, Natural killer cell
[28] = Induction of activation of human CD56+ CD3- NK cells co-cultured with human K562 cells in 1:1 ratio and assessed as increase in IFN-gamma secretion at 1 uM measured by ELISA assay; assay type: functional, Natural killer cell
[29] = Induction of activation of human CD56+ CD3- NK cells co-cultured with human K562 cells in 1:1 ratio and assessed as increase in TNF-alpha secretion at 1 uM measured by ELISA assay; assay type: functional, Natural killer cell
[30] = Induction of activation of human CD56+ CD3- NK cells co-cultured with human K562 cells in 5:1 ratio and assessed as increase in IFN-gamma secretion at 1 uM measured by ELISA assay; assay type: functional, Natural killer cell
[31] = Induction of activation of human CD56+ CD3- NK cells co-cultured with human K562 cells in 5:1 ratio and assessed as increase in MIP1beta secretion at 1 uM measured by ELISA assay; assay type: functional, Natural killer cell
[32] = target: T1, E3 ubiquitin-protein ligase CBL-B; experiment: Binding affinity towards N-terminal biotinylated Avi-tagged human CBL-B (36 to 427 residues) measured by surface plasmon resonance assay
[33] = Induction of activation of human CD56+ CD3- NK cells co-cultured with human K562 cells in 1:1 ratio and assessed as increase in IFN-gamma secretion at 10 uM measured by ELISA assay; assay type: functional, Natural killer cell

Row | IC50 [11] [µM] | Structure (SMILES) | fold change (FC) [1] | fold change (FC) [2] | fold change (FC) [3] | fold change (FC) [4] | fold change (FC) [5] | fold change (FC) [6] | fold change (FC) [7] | fold change (FC) [8] | fold change (FC) [9] | fold change (FC) [10] | fold change (FC) [12] | fold change (FC) [13] | fold change (FC) [14] | fold change (FC) [15] | fold change (FC) [16] | fold change (FC) [17] | fold change (FC) [18] | fold change (FC) [19] | fold change (FC) [20] | further results
1 | < 0.1 | C[C@@H]1CN(Cc2cc3c(c(C(F)(F)F)c2)CN(c2cccc(C4(Cc5nncn5C)COC4)c2)C3=O)CCO1 | 1.31 | 1 | >=7.5 | 1 | >=7.5 | 1 | >=0.201 | >=1.001 | 1.51 | 1.31 |  |  |  |  |  |  |  |  |  | 
2 | < 0.1 | Cn1cnnc1CC1(c2cccc(N3Cc4c(cc(CN5CC[C@@H](C#N)C5)cc4C(F)(F)F)C3=O)c2)COC1 | 1.01 | <1 | >=7.5 | <1 | 5 |  | 0.101 | >=1.001 | <1 | 1.01 | >=1.001 | <1 | <1 | >=7.5 | 1.31 | <1 | >=0.201 | <1 | <1 | 
3 | < 0.1 | Cn1cnnc1C(F)(F)[C@](C)(F)c1cccc(N2Cc3c(cc(CN4CC[C@H](F)C4)cc3C(F)(F)F)C2=O)c1 | 1.31 | 1 | >=7.5 | <1 | 2.51 |  | >=0.201 | >=1.001 | 1 | 1.51 | >=1.001 | 1.51 | 1 | >=7.5 | 1.51 | 1 | >=0.201 | 1 | <1 | fold change (FC) [21]: >=5; fold change (FC) [22]: 2.01; fold change (FC) [23]: 2.01; fold change (FC) [24]: <=1; fold change (FC) [25]: >=5; fold change (FC) [26]: 2.01; fold change (FC) [27]: 1.01; fold change (FC) [28]: 2.01; fold change (FC) [29]: 2.01; fold change (FC) [30]: >=5; fold change (FC) [31]: 1.01; Kd [32]: < 0.1 µM; fold change (FC) [33]: >=5
4 | < 0.1 | C[C@@H](c1cc2c(c(C(F)(F)F)c1)CN(c1cccc(C3([C@@H](F)c4nncn4C)COC3)c1)C2=O)N1CCC2(CC2)C1 (single isomer, unassigned) | 1.31 |  | >=7.5 | 1 | >=7.5 | 1.51 | >=0.201 | >=1.001 |  | 1.31 |  | >2.5 | >2.5 |  |  | 1.51 |  | 1.51 | 1.51 | 
5 | < 0.1 | Cn1cnnc1C(F)(F)[C@](C)(F)c1cccc(N2Cc3c(cc(CN4CCC(F)(F)C4)cc3C(F)(F)F)C2=O)c1 | 1.01 | <1 | 2.51 | 1 | 1.01 |  | 0.101 | 0.801 | 1 | 1.01 | >=1.001 | 1 | 1 | >=7.5 | 1.31 | <1 | >=0.201 | <1 | <1 | fold change (FC) [21]: >=5; fold change (FC) [22]: 2.01; fold change (FC) [23]: 1.01; fold change (FC) [24]: 1.01; fold change (FC) [25]: 2.01; fold change (FC) [26]: 2.01; fold change (FC) [27]: 2.01; fold change (FC) [28]: 1.01; fold change (FC) [29]: 1.01; fold change (FC) [30]: 1.01; fold change (FC) [31]: 1.01; Kd [32]: < 0.1 µM; fold change (FC) [33]: >=5
